The test system of series [1] is outwardly rectifying whole-cell K+ current of isolated PVN neurons. Put plainly: Voltage clamp recordings from dissociated PVN neurons, voltage ramps. It counts as cell-based, rat. The settings on record: voltage ramps 100 mV/sec. On the procedure: Male, Sprague-Dawley rats (150-250 g, Charles River, P.Q., Canada) were killed by decapitation, the brain was removed quickly from the skull and immersed in cold (1-4° C.) artificial cerebrospinal fluid (aCSF). The brain was blocked and 400 μm hypothalamic slices, which included the PVN, were prepared as described in Bains and Ferguson (NeuroReport 8(9-10):2101-05 (1997)). Slices were incubated in oxygenated aCSF (95% O2, 5% CO2) for at least 90 minutes at room temperature. Twenty minutes prior to recording, the slice was transferred into a modified interface type recording chamber and continuously perfused with aCSF at a rate of 1 ml/min.
For isolated neurons, pipettes of 1-4 MΩ were filled with a pipette solution containing (in mM): potassium-gluconate (130), EGTA(10), MgCl2 (1), HEPES (10), Na2ATP (4), GTP (0.1), adjusted to pH 7.2 with KOH. The standard bath solution contained (inmM): NaCl (140), KCl (5), MgCl2 (1), CaCl2 (2), HEPES (10), glucose (10) and […] tetrodotoxin (TTX) (Alamone Labs, Jerusalem, Israel). Signals were amplified, collected and processed using an Axopatch 200B (Axon Instruments) amplifier, a 1401plus A-D interface and Signal software from C.E.D. […]

Series [2] deals with parvocellular neurons of the paraventricular nucleus (PVN). Put plainly: NMDA agonist excitotoxicity after PVN microinjection, histological count of surviving parvocellular neurons, Sprague-Dawley rats. It counts as in vivo, rat. The procedure: Experiments were performed on male Sprague-Dawley rats (150-525 g. Charles River, P.Q., Canada). The animals were anesthetized with sodium pentobarbitol (65 mg/kg, ip), placed in a stereotaxic frame and the skull exposed, and a small burr hole drilled in the skull such that a cannula electrode (tip diameter 150 μm) could be advanced into the region of the PVN according to the coordinates of Paxinos and Watson (−0.9 mm Bregma, 0.5 mm lateral, 7.5 mm ventral) (Paxinos and Watson, The Rat Brain in Stereotaxic Coordinates, Academic Press, New York (1982)). Each animal received a 1.0 μl microinjection to each PVN (2×0.5 μl) according to one of the following protocols, saline/saline, saline/NMDA, 4-AP/saline, 4-AP/NMDA, angiotensin-II/saline, angiotensin-II/NMDA, saralasin (SAR)/NMDA. […]
The blocks were mounted, covered with Tissue-Tek O.C.T. compound (Sakura) and flash frozen in 2-methyl butane (cooled by dry ice) for 45 seconds. […] Only those animals with microinjection within the boundaries of PVN were further analyzed.
Magnocellular neurons were differentiated from parvocellular neurons and cellular material by specific morphological characteristics (Sawchenko and Swanson, J. Comp. Neuro. 218:121-44 (1983)). […] Comparative analyses were performed whereby neurons were counted in 20 μm sections following the initial emergence of PVN. […]

For series [3], the system named is magnocellular neurons of the paraventricular nucleus (PVN). Put plainly: NMDA agonist excitotoxicity after PVN microinjection, histological count of surviving magnocellular neurons, Sprague-Dawley rats. It is filed as in vivo, rat. The settings on record: counted three days later. On the procedure: Experiments were performed on male Sprague-Dawley rats (150-525 g. Charles River, P.Q., Canada). The animals were anesthetized with sodium pentobarbitol (65 mg/kg, ip), placed in a stereotaxic frame and the skull exposed, and a small burr hole drilled in the skull such that a cannula electrode (tip diameter 150 μm) could be advanced into the region of the PVN according to the coordinates of Paxinos and Watson (−0.9 mm Bregma, 0.5 mm lateral, 7.5 mm ventral) (Paxinos and Watson, The Rat Brain in Stereotaxic Coordinates, Academic Press, New York (1982)). Each animal received a 1.0 μl microinjection to each PVN (2×0.5 μl) according to one of the following protocols, saline/saline, saline/NMDA, 4-AP/saline, 4-AP/NMDA, angiotensin-II/saline, angiotensin-II/NMDA, saralasin (SAR)/NMDA. The incision was then closed and the animal received the analgesic Buprenorphin (0.03 mg/kg, SQ) to aid postoperative recovery. Animals were allowed to recover for three days after which they were overdosed with sodium pentobarbitol (100 mg/kg) and perfused with 0.9% saline followed by 10% formalin through the left ventricle of the heart. The brain was removed, placed in formalin overnight at […]. The brain was then cut into a smaller block contained PVN and stored in a 30% sucrose, 0.1 M phosphate buffer at 4° C. for at least two days.
The blocks were mounted, covered with Tissue-Tek O.C.T. compound (Sakura) and flash frozen in 2-methyl butane (cooled by dry ice) for 45 seconds. Using the Frigocut 280 (Reichart Jung), 20 μm coronal sections were cut through the area of PVN. These sections were mounted and cresyl violet stained. The histological locations of the microinjection sites were verified at the light microscope level by an observer unaware of the experimental conditions. Only those animals with microinjection within the boundaries of PVN were further analyzed.
Magnocellular neurons were differentiated from parvocellular neurons and cellular material by specific morphological characteristics (Sawchenko and Swanson, J. Comp. Neuro. 218:121-44 (1983)). In addition to the anatomical location of the neuron within PVN, morphological size was used to further characterize neuronal type. Neurons with soma diameter of approximately 20-25 μm and intact nuclei were characterized as viable magnocellular neurons. Neurons with soma diameter of between 15 and 20 μm were not included in the study, as they could not be reliably classified as belonging to either subpopulation. Histological sections were viewed under high magnification (40×) at the light microscope level and a grid was superimposed over each area of PVN. […] Comparative analyses were performed whereby neurons were counted in 20 μm sections following the initial emergence of PVN. […]

The test system is the same in series [4]. Put plainly: NMDA agonist excitotoxicity after PVN microinjection, surviving magnocellular neurons, spontaneously hypertensive rats. It counts as in vivo, rat. The source says: (§1) To determine whether magnocellular neurons in hypertensive rats with increased central angiotensin-II lose their resistance to excitotoxins as a consequence of endogenous angiotensin-II inhibiting the transient K^+ conductance, NMDA agonist or vehicle control was microinjected into PVN and surviving neurons were counted three days later. Following such treatment, a similar loss of parvocellular neurons to that found in normotensive animals was observed (82±2% surviving), while the resistance of magnocellular neurons was no longer observed in these animals (71±5% surviving) (see FIG. 3 for specific N values). To confirm that angiotensin-II was responsible for this loss of resistance, the NMDA agonist was next microinjected into PVN of spontaneously hypertensive rats immediately following the angiotensin-II receptor antagonist saralasin. […] These findings provide the first direct evidence that elevated angiotensin-II concentrations in the central nervous system of hypertensive animals may contribute to the increased susceptibility for stroke and that these actions can be prevented by central angiotensin-II receptor blockade. […]
(§2) The blocks were mounted, covered with Tissue-Tek O.C.T. compound (Sakura) and flash frozen in 2-methyl butane (cooled by dry ice) for 45 seconds. […] Only those animals with microinjection within the boundaries of PVN were further analyzed. […]

For series [5], the system named is parvocellular neurons of the paraventricular nucleus (PVN). The series can be described thus: NMDA agonist excitotoxicity after PVN microinjection, surviving parvocellular neurons, spontaneously hypertensive rats. It is filed as in vivo, rat. The settings on record: NMDA agonist alone into PVN, counted three days later.
Text: as §1, §2

For series [6] the following is noted: Li et al., Brain Res. Bull. 30:33-39 (1993); cited from earlier work.
Where [7] appears, read: substance microinjected into PVN prior to NMDA agonist.
Setting [8] is: substance microinjected into PVN alone.

For `Nc1ccncc1` [4-AP, 4-aminopyridine], the “inhibition of outwardly rectifying whole-cell current” value in series [1] (100 μM) is given as “inhibited”. Also, the “effect of 4-AP on parvocellular neuron population” value in series [2] (4-AP pretreatment before NMDA agonist microinjection) is given as “no significant effect”. In addition, the “proportion of parvocellular neurons surviving” value in series [2] (NMDA agonist microinjection, PVN treated with 4-AP) turned out to be 80.9±3.0%. The “proportion of magnocellular neurons surviving” value in series [3] (setting [7]) is 78.9±4.6%.

`N[C@@H](C(=O)O)c1nnn[nH]1` [NMDA agonist, D-1-tetrazol-5yl-glycine]: in series [4] (hypertensive rats, NMDA agonist alone into PVN, counted three days later), the magnocellular neurons surviving was 71±5%. Besides, in series [3] (setting [8]), the “proportion of magnocellular neurons surviving” value is 100.0±2.4%. Moreover, the parvocellular neurons surviving in series [5] worked out at 82±2%.

`CNCC(=O)N[C@@H](CCCN=C(N)N)C(=O)N[C@H](C(=O)N[C@@H](Cc1ccc(O)cc1)C(=O)N[C@H](C(=O)N[C@@H](Cc1cnc[nH]1)C(=O)N1CCC[C@H]1C(=O)N[C@@H](C)C(=O)O)C(C)C)C(C)C` [saralasin, Sar^1Ala^8-angiotensin-II]: in series [6], the “crossing of the blood-brain barrier” value is “does not cross the blood-brain barrier”. The “effect on cell viability” value in series [4] (SHR PVN, saralasin by itself) is reported as “no effect”.

Turning to a-dendrotoxin [a-DTX], in series [1] (1 μM), the “inhibition of outwardly rectifying whole-cell current, compared with 100 μM 4-AP” value is reported as “to an equal degree”.

For “angiotensin-II: octapeptide hormone, end product of the RAS, powerful arterial vasoconstrictor”, the “proportion of magnocellular neurons surviving” value is 97.4±4.2% in series [3] (setting [8]) and 80.8±3.75% in series [3] (setting [7]).

Values taken from patent US20020022587A1, “Methods for effecting neuroprotection” (priority 2000, published 2002).
